Measured values as given in patent publication US8952024B2, “Herbicidal pyrimidone derivatives” (E I du Pont de Nemours and Company, priority 2009, dated 2015).

Experiments:
Type in all cases: in vivo
[1] = system: Surinam grass (Brachiaria decumbens); experiment: Test B pre-/postemergence plant response
Procedure, shortened: (§1)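 Visual injury, 0–100 scale (100 = complete control), rated against controls after 13 to 15 days in greenhouse. Pre-emergence: seeds in loam/sand soil, treated at planting. Post-emergence: 1- to 4-leaf plants (2 to 18 cm) in peat/vermiculite medium. Compounds formulated in non-phytotoxic solvent with surfactant.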

[2] = system: pigweed (Amaranthus retroflexus); experiment: Test B pre-/postemergence plant response
Procedure, shortened: as §1

[3] = system: blackgrass (Alopecurus myosuroides); experiment: Test B pre-/postemergence plant response
Procedure, shortened: as §1

[4] = system: johnsongrass (Sorghum halepense); experiment: Test B pre-/postemergence plant response
Procedure, shortened: as §1

[5] = system: green foxtail (Setaria viridis); experiment: Test B pre-/postemergence plant response
Procedure, shortened: as §1

[6] = system: ragweed (common ragweed, Ambrosia elatior); experiment: Test B pre-/postemergence plant response
Procedure, shortened: as §1

[7] = system: lambsquarters (Chenopodium album); experiment: Test B pre-/postemergence plant response
Procedure, shortened: as §1

corn (Zea mays) = experiment: Test B pre-/postemergence plant response
Procedure, shortened: as §1

wild oat (Avena fatua) = experiment: Test B pre-/postemergence plant response
Procedure, shortened: as §1

[8] = system: giant foxtail (Setaria faberii); experiment: Test B pre-/postemergence plant response
Procedure, shortened: as §1

[9] = system: goosegrass (Eleusine indica); experiment: Test B pre-/postemergence plant response
Procedure, shortened: as §1

[10] = system: umbrella sedge (Cyperus difformis); experiment: Test B flooded paddy test; conditions: for Plant response rating, Sedge, Umbrella: Flood (flooded paddy test), 13 to 15 days
Procedure, shortened: (§2)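 Each compound is added to standing floodwater (3 cm above soil, maintained) in pots of 2-leaf-stage plants; greenhouse exposure lasts 13–15 d before visual comparison with controls on a 0–100 control scale.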

rice (Oryza sativa) = experiment: Test B flooded paddy test; conditions: for Plant response rating, Rice: Flood (flooded paddy test), 13 to 15 days
Procedure, shortened: as §2

[11] = 31 g ai/ha, postemergence, scale 0 to 100, 0 is no effect, 100 is complete control
[12] = Postemergence, 62 g ai/ha, scale 0 (no effect) to 100 (complete control), 13 to 15 days
[13] = Postemergence, 125 g ai/ha, visual rating after 13 to 15 days, scale 0 (no effect) to 100 (complete control)
[14] = Postemergence, 250 g ai/ha, scale 0 to 100 (0 no effect, 100 complete control)
[15] = Preemergence, 31 g ai/ha, scale 0 to 100 (0 no effect, 100 complete control)
[16] = Preemergence, 62 g ai/ha, scale 0 to 100 (0 no effect, 100 complete control)
[17] = Preemergence, 125 g ai/ha, scale 0 to 100, 0 no effect, 100 complete control
[18] = 250 g ai/ha, Preemergence, 0 to 100 scale
[19] = 250 g ai/ha, flooded paddy test, visual rating on 0 to 100 scale (0 no effect, 100 complete control) after 13 to 15 days
[20] = 31 g ai/ha, scale of 0 to 100 where 0 is no effect and 100 is complete control
[21] = 62 g ai/ha, scale of 0 to 100 where 0 is no effect and 100 is complete control
[22] = 125 g ai/ha, scale 0 to 100, 0 is no effect, 100 is complete control

Cc1cc(-n2c(-c3ccccc3)ncc(C(=O)C3=C(O)CCCC3=O)c2=O)ccc1F [Compound 53]
Plant response rating, Surinam Grass [1, 11]: 85 | Plant response rating, Surinam Grass [1, 12]: 95 | Plant response rating, Surinam Grass [1, 13]: 98 | Plant response rating, Surinam Grass [1, 14]: 98 | Plant response rating, Surinam Grass [1, 15]: 75 | Plant response rating, Surinam Grass [1, 16]: 85 | Plant response rating, Surinam Grass [1, 17]: 100 | Plant response rating, Pigweed [2, 11]: 85 | Plant response rating, Pigweed [2, 12]: 95 | Plant response rating, Pigweed [2, 13]: 100 | Plant response rating, Pigweed [2, 14]: 100 | Plant response rating, Pigweed [2, 15]: 95 | Plant response rating, Pigweed [2, 16]: 98 | Plant response rating, Pigweed [2, 17]: 100 | Plant response rating, Blackgrass [3, 11]: 20 | Plant response rating, Blackgrass [3, 18]: 60 | Plant response rating, Blackgrass [3, 12]: 30 | Plant response rating, Blackgrass [3, 13]: 40 | Plant response rating, Blackgrass [3, 14]: 50 | Plant response rating, Blackgrass [3, 15]: 0 | Plant response rating, Blackgrass [3, 16]: 5 | Plant response rating, Blackgrass [3, 17]: 5 | Plant response rating, Johnsongrass [4, 11]: 55 | Plant response rating, Johnsongrass [4, 18]: 75 | Plant response rating, Johnsongrass [4, 12]: 95 | Plant response rating, Johnsongrass [4, 13]: 95 | Plant response rating, Johnsongrass [4, 14]: 100 | Plant response rating, Johnsongrass [4, 15]: 10 | Plant response rating, Johnsongrass [4, 16]: 55 | Plant response rating, Johnsongrass [4, 17]: 60 | Plant response rating, Foxtail, Green [5, 11]: 95 | Plant response rating, Foxtail, Green [5, 18]: 98 | Plant response rating, Foxtail, Green [5, 12]: 100 | Plant response rating, Foxtail, Green [5, 13]: 100 | Plant response rating, Foxtail, Green [5, 14]: 100 | Plant response rating, Foxtail, Green [5, 15]: 60 | Plant response rating, Foxtail, Green [5, 16]: 60 | Plant response rating, Foxtail, Green [5, 17]: 98 | Plant response rating, Ragweed [6, 11]: 80 | Plant response rating, Ragweed [6, 12]: 85 | Plant response rating, Ragweed [6, 13]: 95 | Plant response rating, Ragweed [6, 14]: 98 | Plant response rating, Ragweed [6, 15]: 65 | Plant response rating, Ragweed [6, 16]: 75 | Plant response rating, Ragweed [6, 17]: 85 | Plant response rating, Lambsquarters [7, 11]: 90 | Plant response rating, Lambsquarters [7, 18]: 100 | Plant response rating, Lambsquarters [7, 12]: 95 | Plant response rating, Lambsquarters [7, 13]: 98 | Plant response rating, Lambsquarters [7, 14]: 98 | Plant response rating, Lambsquarters [7, 15]: 98 | Plant response rating, Lambsquarters [7, 16]: 100 | Plant response rating, Lambsquarters [7, 17]: 100 | Plant response rating, Corn (corn (Zea mays); [11]): 55 | Plant response rating, Corn (corn (Zea mays); [18]): 20 | Plant response rating, Corn (corn (Zea mays); [12]): 80 | Plant response rating, Corn (corn (Zea mays); [13]): 80 | Plant response rating, Corn (corn (Zea mays); [14]): 85 | Plant response rating, Corn (corn (Zea mays); [15]): 0 | Plant response rating, Corn (corn (Zea mays); [16]): 0 | Plant response rating, Corn (corn (Zea mays); [17]): 0 | Plant response rating, Oat, Wild (wild oat (Avena fatua); [11]): 50 | Plant response rating, Oat, Wild (wild oat (Avena fatua); [12]): 70 | Plant response rating, Oat, Wild (wild oat (Avena fatua); [13]): 85 | Plant response rating, Oat, Wild (wild oat (Avena fatua); [14]): 85 | Plant response rating, Oat, Wild (wild oat (Avena fatua); [15]): 0 | Plant response rating, Oat, Wild (wild oat (Avena fatua); [16]): 0 | Plant response rating, Oat, Wild (wild oat (Avena fatua); [17]): 0 | Plant response rating, Foxtail, Giant [8, 11]: 80 | Plant response rating, Foxtail, Giant [8, 18]: 100 | Plant response rating, Foxtail, Giant [8, 12]: 85 | Plant response rating, Foxtail, Giant [8, 13]: 90 | Plant response rating, Foxtail, Giant [8, 14]: 95 | Plant response rating, Foxtail, Giant [8, 15]: 5 | Plant response rating, Foxtail, Giant [8, 16]: 85 | Plant response rating, Foxtail, Giant [8, 17]: 100 | Plant response rating, Goosegrass [9, 11]: 75 | Plant response rating, Goosegrass [9, 18]: 100 | Plant response rating, Goosegrass [9, 12]: 80 | Plant response rating, Goosegrass [9, 13]: 80 | Plant response rating, Goosegrass [9, 14]: 85 | Plant response rating, Goosegrass [9, 15]: 98 | Plant response rating, Goosegrass [9, 16]: 100 | Plant response rating, Goosegrass [9, 17]: 100 | Plant response rating, Flood, Sedge, Umbrella [10, 19]: 90 | Plant response rating, Sedge, Umbrella [10, 20]: 40 | Plant response rating, Sedge, Umbrella [10, 21]: 85 | Plant response rating, Sedge, Umbrella [10, 22]: 90 | Plant response rating, Flood, Rice (rice (Oryza sativa); [19]): 85 | Plant response rating, Rice (rice (Oryza sativa); [20]): 15 | Plant response rating, Rice (rice (Oryza sativa); [21]): 20 | Plant response rating, Rice (rice (Oryza sativa); [22]): 60
